SMILES strings stand for the structures.

This assay addresses T1, human VDR (Homo sapiens, UniProt P11473).
T1 sequence (P11473 1-427): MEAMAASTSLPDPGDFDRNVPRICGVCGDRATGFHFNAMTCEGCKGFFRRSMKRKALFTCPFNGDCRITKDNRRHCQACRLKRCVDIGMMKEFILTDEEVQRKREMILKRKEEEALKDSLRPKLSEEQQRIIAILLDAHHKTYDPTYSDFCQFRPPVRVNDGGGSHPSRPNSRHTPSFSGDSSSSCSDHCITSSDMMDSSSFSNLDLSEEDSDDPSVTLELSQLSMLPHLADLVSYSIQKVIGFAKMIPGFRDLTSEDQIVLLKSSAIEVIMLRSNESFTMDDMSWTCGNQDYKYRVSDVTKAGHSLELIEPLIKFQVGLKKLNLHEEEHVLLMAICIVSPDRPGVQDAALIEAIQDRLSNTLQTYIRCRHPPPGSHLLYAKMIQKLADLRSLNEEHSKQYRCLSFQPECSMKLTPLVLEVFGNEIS
T1 sequence (P19793 1-462 partner): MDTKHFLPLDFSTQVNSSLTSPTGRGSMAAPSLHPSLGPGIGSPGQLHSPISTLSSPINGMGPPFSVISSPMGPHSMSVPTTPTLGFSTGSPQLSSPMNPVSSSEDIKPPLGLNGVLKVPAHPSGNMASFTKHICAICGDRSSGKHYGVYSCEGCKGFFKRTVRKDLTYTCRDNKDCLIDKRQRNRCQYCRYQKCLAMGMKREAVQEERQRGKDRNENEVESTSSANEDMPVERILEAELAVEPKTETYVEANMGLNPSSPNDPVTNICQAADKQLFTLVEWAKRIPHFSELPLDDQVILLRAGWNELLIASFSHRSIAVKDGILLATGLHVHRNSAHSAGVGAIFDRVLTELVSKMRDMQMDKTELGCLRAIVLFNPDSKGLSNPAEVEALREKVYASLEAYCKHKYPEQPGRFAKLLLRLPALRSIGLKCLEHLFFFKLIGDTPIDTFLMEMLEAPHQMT
Nature of the assay: Evaluation of VDR transcription activity in human osteoblasts (HOS cells), luciferase reporter. The note with it: Activity (EC50, VDR transcription activity), HOS cells transfected with human VDR, human RXRα and DR3 luciferase reporter; 21 hours.
In turn, `C=C1/C(=C\C=C2/CCC[C@]3(C)[C@@H]([C@@H](C)CN4CCC(O)(C(F)F)CC4)CC[C@@H]23)C[C@@H](O)C[C@@H]1O` [Compound C024, (1R,3S,Z)-5-(2-((1R,3aS,7aR,E)-1-((R)-1-(4-(difluoromethyl)-4-hydroxypiperidin-1-yl)propan-2-yl)-7a-methyloctahydro-4H-inden-4-ylidene)ethylidene)-4-methylenecyclohexane-1,3-diol] yielded an EC50 of 1 to 10 nM.
The figure for `C[C@@H](CN1CCC(O)(C(F)F)CC1)[C@H]1CC[C@H]2/C(=C/C=C3C[C@@H](O)C[C@H](O)C3)CCC[C@]12C` [Compound C025, (1R,3R)-5-(2-((1R,3aS,7aR,E)-1-((R)-1-(4-(difluoromethyl)-4-hydroxypiperidin-1-yl)propan-2-yl)-7a-methyloctahydro-4H-inden-4-ylidene)ethylidene)cyclohexane-1,3-diol] is 10 to 100 nM; for `C=C1[C@H](O)CC(=C/C=C2\CCC[C@]3(C)[C@@H]([C@@H](C)CN4CCC(O)(C(F)F)CC4)CC[C@@H]23)C[C@H]1O` [Compound C026, (1R,3R)-5-(2-((1R,3aS,7aR,E)-1-((R)-1-(4-(difluoromethyl)-4-hydroxypiperidin-1-yl)propan-2-yl)-7a-methyloctahydro-4H-inden-4-ylidene)ethylidene)-2-methylenecyclohexane-1,3-diol] it is 1 to 10 nM; for `C=C1/C(=C\C=C2/CCC[C@]3(C)[C@@H]([C@@H](C)CN4CCC(C)(O)CC4)CC[C@@H]23)C[C@@H](O)C[C@@H]1O` [Compound C029, (1R,3S,Z)-5-(2-((1R,3aS,7aR,E)-1-((R)-1-(4-hydroxy-4-methylpiperidin-1-yl)propan-2-yl)-7a-methyloctahydro-4H-inden-4-ylidene)ethylidene)-4-methylenecyclohexane-1,3-diol] it is 100 to 1000 nM.
`C=C1[C@H](O)CC(=C/C=C2\CCC[C@]3(C)[C@@H]([C@H](C)CN4CCC[C@@](C)(O)C4)CC[C@@H]23)C[C@H]1O` [Compound C040, (1R,3R)-5-(2-((1R,3aS,7aR,E)-1-((S)-1-((R)-3-hydroxy-3-methylpiperidin-1-yl)propan-2-yl)-7a-methyloctahydro-4H-inden-4-ylidene)ethylidene)-2-methylenecyclohexane-1,3-diol] registered an EC50 of 10 to 100 nM.
To `C=C1[C@H](O)CC(=C/C=C2\CCC[C@]3(C)[C@@H]([C@H](C)CN4CCC[C@](C)(O)C4)CC[C@@H]23)C[C@H]1O` [Compound C041, (1R,3R)-5-(2-((1R,3aS,7aR,E)-1-((S)-1-((S)-3-hydroxy-3-methylpiperidin-1-yl)propan-2-yl)-7a-methyloctahydro-4H-inden-4-ylidene)ethylidene)-2-methylenecyclohexane-1,3-diol] belongs below 1 nM; to `C=C1/C(=C\C=C2/CCC[C@]3(C)[C@@H]([C@H](C)CN4CCC[C@H](C(F)F)C4)CC[C@@H]23)C[C@@H](O)C[C@@H]1O` [Compound C048, (1R,3S,Z)-5-(2-((1R,3aS,7aR,E)-1-((S)-1-((S)-3-(difluoromethyl)piperidin-1-yl)propan-2-yl)-7a-methyloctahydro-4H-inden-4-ylidene)ethylidene)-4-methylenecyclohexane-1,3-diol], 10 to 100 nM.
To `C=C1[C@H](O)CC(=C/C=C2\CCC[C@]3(C)[C@@H]([C@H](C)CN4CCC[C@H](C(F)F)C4)CC[C@@H]23)C[C@H]1O` [Compound C049, (1R,3R)-5-(2-((1R,3aS,7aR,E)-1-((S)-1-((S)-3-(difluoromethyl)piperidin-1-yl)propan-2-yl)-7a-methyloctahydro-4H-inden-4-ylidene)ethylidene)-2-methylenecyclohexane-1,3-diol] belongs 1 to 10 nM; to `C=C1/C(=C\C=C2/CCC[C@]3(C)[C@@H]([C@H](C)CN4CCC[C@H](C(F)F)C4)CC[C@@H]23)C[C@@H](O)[C@H](C)[C@@H]1O` [Compound C050, (1R,2S,3 S,Z)-5-(2-((1R,3aS,7aR,E)-1-((S)-1-((S)-3-(difluoromethyl)piperidin-1-yl)propan-2-yl)-7a-methyloctahydro-4H-inden-4-ylidene)ethylidene)-2-methyl-4-methylenecyclohexane-1,3-diol], 1 to 10 nM.
`C[C@H](CN1CCC[C@H](CC(F)F)C1)[C@H]1CC[C@H]2/C(=C/C=C3C[C@@H](O)C[C@H](O)C3)CCC[C@]12C` [Compound C051, (1R,3R)-5-(2-((1R,3aS,7aR,E)-1-((S)-1-((R)-3-(2,2-difluoroethyl)piperidin-1-yl)propan-2-yl)-7a-methyloctahydro-4H-inden-4-ylidene)ethylidene)cyclohexane-1,3-diol] yielded an EC50 of 100 to 1000 nM.
For `C=C1[C@H](O)CC(=C/C=C2\CCC[C@]3(C)[C@@H]([C@H](C)CN4CCC[C@H](C(C)(F)F)C4)CC[C@@H]23)C[C@H]1O` [Compound C053, (1R,3R)-5-(2-((1R,3aS,7aR,E)-1-((S)-1-((S)-3-(1,1-difluoroethyl)piperidin-1-yl)propan-2-yl)-7a-methyloctahydro-4H-inden-4-ylidene)ethylidene)-2-methylenecyclohexane-1,3-diol], the EC50 was 1 to 10 nM.
To `C=C1[C@H](O)CC(=C/C=C2\CCC[C@]3(C)[C@@H]([C@@H](C)CN4CCC(CC(F)F)CC4)CC[C@@H]23)C[C@H]1O` [Compound C056, (1R,3R)-5-(2-((1R,3aS,7aR,E)-1-((R)-1-(4-(2,2-difluoroethyl)piperidin-1-yl)propan-2-yl)-7a-methyloctahydro-4H-inden-4-ylidene)ethylidene)-2-methylenecyclohexane-1,3-diol] belongs 10 to 100 nM; to `C=C1[C@H](O)CC(=C/C=C2\CCC[C@]3(C)[C@@H]([C@@H](C)CN4CCC(C(C)(F)F)CC4)CC[C@@H]23)C[C@H]1O` [Compound C057, (1R,3R)-5-(2-((1R,3aS,7aR,E)-1-((R)-1-(4-(1,1-difluoroethyl)piperidin-1-yl)propan-2-yl)-7a-methyloctahydro-4H-inden-4-ylidene)ethylidene)-2-methylenecyclohexane-1,3-diol], 1 to 10 nM; to `C=C1/C(=C\C=C2/CCC[C@]3(C)[C@@H]([C@@H](C)CN4CCC(F)CC4)CC[C@@H]23)C[C@@H](O)C[C@@H]1O` [Compound C058], 10 to 100 nM.
Molecule `C=C1[C@H](O)CC(=C/C=C2\CCC[C@]3(C)[C@@H]([C@@H](C)CN4CCC(C(F)(F)F)CC4)CC[C@@H]23)C[C@H]1O` [Compound C060, (1R,3R)-5-(2-((1R,3aS,7aR,E)-7a-methyl-1-((R)-1-(4-(trifluoromethyl)piperidin-1-yl)propan-2-yl)octahydro-4H-inden-4-ylidene)ethylidene)-2-methylenecyclohexane-1,3-diol] had a concentration for a half-maximal effect (EC50) of 1 to 10 nM.
Turning to `C=C1/C(=C\C=C2/CCC[C@]3(C)[C@@H]([C@H](C)CN4CCO[C@H](C(F)F)C4)CC[C@@H]23)C[C@@H](O)C[C@@H]1O` [Compound D005, (1R,3S,Z)-5-(2-((1R,3aS,7aR,E)-1-((S)-1-((S)-2-(difluoromethyl)morpholino)propan-2-yl)-7a-methyloctahydro-4H-inden-4-ylidene)ethylidene)-4-methylenecyclohexane-1,3-diol], the EC50 was 10 to 100 nM.

What is called EC50 is the concentration at which the effect is half-maximal.
